Where two headings read alike, the source gives them in different places.
Tested on: adjuvant-induced arthritis in rats
Assay: Established Adjuvant-Induced Arthritis in Rats (A.A.)
Assay type: in vivo, Charles River Lewis male rats
Conditions: for ED50: Rattus norvegicus, read-out: A.A. ED50 % (ED50% decrease from control paw volume)
[1] = oral, 7 daily doses, rats, determined as % paw volume reduction from control (uninjected, left hind paw)

| Compound | ED50 [1] | also measured |
| --- | --- | --- |
| CC(=O)Oc1ccccc1C(=O)O [Aspirin, reference compound] |  | ED50 (po): 305 mg/kg |
| FC(F)(F)Sc1nc(-c2ccccc2)c(-c2ccccc2)n1COCc1ccccc1 [Example 1, 1-Benzyloxymethyl-4,5-diphenyl-2-trifluoromethylthioimidazole] | > 10 mg/kg | % paw volume reduction from control (@ 10 mg/Kg, oral, rats): 34% |
| FC(F)C(F)(F)Sc1nc(-c2ccccc2)c(-c2ccccc2)n1COCc1ccccc1 [Example 2, 1-Benzyloxymethyl-4,5-diphenyl-2-(1,1,2,2-tetrafluoroethylthio)imidazole] | 3.7 mg/kg |  |
| CCOC(=O)n1c(SC(F)(F)C(F)F)nc(-c2ccccc2)c1-c1ccccc1 [Example 3, 4,5-Diphenyl-1-ethoxycarbonyl-2-(1,1,2,2-tetrafluoroethylthio)imidazole] | 2.3 mg/kg |  |
| O=S(=O)(c1nc(-c2ccccc2)c(-c2ccccc2)n1COCc1ccccc1)C(F)(F)C(F)F [Example 4, 1-Benzyloxymethyl-4,5-diphenyl-2-(1,1,2,2-tetrafluoroethylsulfonyl)imidazole] | 1.3 mg/kg |  |
| FC(F)(F)Sc1nc(-c2ccccc2)c(-c2ccccc2)n1C1CCCCO1 (stereo not drawn) [Example 5, 4,5-Diphenyl-1-(2-tetrahydropyranyl)-2-trifluoromethylthiomidazole] | 18 mg/kg |  |
| CCOC(=O)n1c(SC(F)(F)C(F)F)nc(-c2ccc(F)cc2)c1-c1ccc(F)cc1 [Example 6, 1-Ethoxycarbonyl-4,5-bis(4-fluorophenyl)-2-(1,1,2,2-tetrafluoroethylthio)imidazole] | 0.15 mg/kg |  |
| Cn1c(S(=O)(=O)C(F)(F)C(F)F)nc(-c2ccc(F)cc2)c1-c1ccc(F)cc1 [Example 8, 4,5-bis(4-Fluorophenyl)-1-methyl-2-(1,1,2,2-tetrafluoroethylsulfonyl)imidazole] | 1 mg/kg |  |
| CN(C)C(=S)n1c(SC(F)(F)C(F)F)nc(-c2ccccc2)c1-c1ccccc1 [Example 9, 1-(N,N-Dimethylthiocarbamoyl)-4,5-diphenyl-2-(1,1,2,2-tetrafluoroethylthio)imidazole] | < 15 mg/kg | % paw volume reduction from control (@ 15 mg/Kg, oral, rats): 53% |
| CNC(=O)N(C)C(=O)n1c(SC(F)(F)C(F)F)nc(-c2ccccc2)c1-c1ccccc1 [Example 11, N-Methyl-N-(methylaminocarbonyl)-4,5-diphenyl-2-(1,1,2,2-tetrafluoroethylthio)imidazole-1-carboxamide] | 1.8 mg/kg |  |
| O=C(OCc1ccccc1)n1c(SC(F)(F)C(F)F)nc(-c2ccccc2)c1-c1ccccc1 [Example 12, 1-Benzyloxycarbonyl-4,5-diphenyl-2-(1,1,2,2-tetrafluoroethylthio)imidazole] | < 25 mg/kg | % paw volume reduction from control (@ 25 mg/Kg, oral, rats): 69% |
| CC(C)(C)C(=O)OCn1c(S(=O)(=O)C(F)(F)C(F)F)nc(-c2ccc(F)cc2)c1-c1ccc(F)cc1 [Example 13, 4,5-bis(4-Fluorophenyl)-1-(pivaloyloxymethyl)-2-(1,1,2,2-tetrafluoroethylsulfonyl)imidazole] | 1.2 mg/kg |  |
| O=S(=O)(c1ccccc1)n1c(SC(F)(F)C(F)F)nc(-c2ccccc2)c1-c1ccccc1 [Example 14, 1-Benzenesulfonyl-4,5-diphenyl-2-(1,1,2,2-tetrafluoroethylthio)imidazole] | ~35 mg/kg |  |
| CC(=O)n1c(SC(F)(F)C(F)F)nc(-c2ccccc2)c1-c1ccccc1 [Example 15, 1-Acetyl-4,5-diphenyl-2-(1,1,2,2-tetrafluoroethylthio)imidazole] | 0.9 mg/kg |  |
| FC(F)C(F)(F)Sc1nc(-c2ccccc2)c(-c2ccccc2)n1C1CCCO1 (stereo not drawn) [Example 16, 4,5-Diphenyl-2-(1,1,2,2-tetrafluoroethylthio)-1-(2-tetrahydrofuranyl)imidazole] | 2.7 mg/kg |  |
| O=S(=O)(c1ccccc1)n1c(SC(F)(F)F)nc(-c2ccc(F)cc2)c1-c1ccc(F)cc1 [Example 17, 1-Benzenesulfonyl-4,5-bis(4-fluorophenyl)-2-(trifluoromethylthio)imidazole] | 0.18 mg/kg |  |
| CC(C)n1c(SC(F)(F)C(F)F)nc(-c2ccc(F)cc2)c1-c1ccc(F)cc1 [Example 18, 4,5-bis(4-Fluorophenyl)-1-isopropyl-2-(1,1,2,2-tetrafluoroethylthio)imidazole] | 10 mg/kg |  |
| Cn1c(SC(F)(F)C(F)F)nc(-c2ccc(F)cc2)c1-c1ccc(F)cc1 [Example 19] | 2.3 mg/kg |  |

| Compound | ED50 [1] | also measured |
| --- | --- | --- |
| CCn1c(SC(F)(F)C(F)F)nc(-c2ccc(F)cc2)c1-c1ccc(F)cc1 [Example 20] | 3 mg/kg |  |
| CCCn1c(SC(F)(F)C(F)F)nc(-c2ccc(F)cc2)c1-c1ccc(F)cc1 [Example 21] | 14 mg/kg |  |
| C=CCn1c(SC(F)(F)C(F)F)nc(-c2ccc(F)cc2)c1-c1ccc(F)cc1 [Example 22] | 1.3 mg/kg |  |
| CCn1c(S(=O)(=O)C(F)(F)C(F)F)nc(-c2ccc(F)cc2)c1-c1ccc(F)cc1 [Example 23] | 4.8 mg/kg |  |
| CCCn1c(S(=O)(=O)C(F)(F)C(F)F)nc(-c2ccc(F)cc2)c1-c1ccc(F)cc1 [Example 24] | > 9 mg/kg | % paw volume reduction from control (@ 9 mg/Kg, oral, rats): 33% |
| CCCCn1c(S(=O)(=O)C(F)(F)C(F)F)nc(-c2ccc(F)cc2)c1-c1ccc(F)cc1 [Example 25] | 5 mg/kg |  |
| C=CCn1c(S(=O)(=O)C(F)(F)C(F)F)nc(-c2ccc(F)cc2)c1-c1ccc(F)cc1 [Example 26] | 2 mg/kg |  |
| CN(C)CCn1c(S(=O)(=O)C(F)(F)C(F)F)nc(-c2ccc(F)cc2)c1-c1ccc(F)cc1 [Example 27] | < 7 mg/kg | % paw volume reduction from control (@ 7 mg/Kg, oral, rats): 76% |
| Cn1c(SC(F)(F)F)nc(-c2ccc(F)cc2)c1-c1ccc(F)cc1 [Example 28] | 2.1 mg/kg |  |
| Cn1c(S(=O)(=O)C(F)(F)F)nc(-c2ccc(F)cc2)c1-c1ccc(F)cc1 [Example 29] | > 3 mg/kg | % paw volume reduction from control (@ 3 mg/Kg, oral, rats): 33% |
| COc1ccc(-c2nc(S(=O)(=O)C(F)(F)CF)n(C)c2-c2ccc(OC)cc2)cc1 [Example 31] | > 20 mg/kg | % paw volume reduction from control (@ 20 mg/Kg, oral, rats): 36% |
| CS(=O)(=O)n1c(SC(F)(F)C(F)F)nc(-c2ccccc2)c1-c1ccccc1 [Example 32] | ~21 mg/kg |  |
| O=C(c1ccccc1)n1c(SC(F)(F)C(F)F)nc(-c2ccccc2)c1-c1ccccc1 [Example 34] | 2.3 mg/kg |  |
| CC(C)Cc1ccc(C(C)C(=O)O)cc1 (stereo not drawn) [Ibuprofen, reference compound] | 100 mg/kg |  |
| COc1ccc2c(c1)c(CC(=O)O)c(C)n2C(=O)c1ccc(Cl)cc1 [Indomethacin, reference compound] |  | ED50 (po): 0.3 mg/kg |
| CCCCC1C(=O)N(c2ccccc2)N(c2ccccc2)C1=O [Phenylbutazone, reference compound] | 10 mg/kg |  |
| Mixture of 1-Ethoxycarbonyl-4-(4-fluorophenyl)-5-phenyl-2-(1,1,2,2-tetrafluoroethylthio)imidazole and 1-Ethoxycarbonyl-5-(4-fluorophenyl)-4-phenyl-2-(1,1,2,2-tetrafluoroethylthio)imidazole [Example 7] |  | A.A. ED50 % (ED50% decrease from control paw volume) [1]: 0.65 mg/kg |

— patent US4182769A, “Anti-inflammatory 1-substituted-4,5-diaryl-2-(substituted-thio) imidazoles and their corresponding sulfoxides and sulfones” (E. I. Du Pont de Nemours and Company, priority 1978, dated 1980)
